How the values were obtained:
[1] = biological target: Sodium channel protein type 5 subunit alpha (Homo sapiens, UniProt Q14524); assay: Inhibition of human Nav1.5 by automated voltage clamp electrophysiology
[2] = Intrinsic clearance in mouse liver microsomes; type: ADME, Microsome; settings: read-out: CLH
[3] = Intrinsic clearance in human liver microsomes; type: ADME, Microsome; settings: read-out: CLH

Sequence of Sodium channel protein type 5 subunit alpha (Q14524 whole entry): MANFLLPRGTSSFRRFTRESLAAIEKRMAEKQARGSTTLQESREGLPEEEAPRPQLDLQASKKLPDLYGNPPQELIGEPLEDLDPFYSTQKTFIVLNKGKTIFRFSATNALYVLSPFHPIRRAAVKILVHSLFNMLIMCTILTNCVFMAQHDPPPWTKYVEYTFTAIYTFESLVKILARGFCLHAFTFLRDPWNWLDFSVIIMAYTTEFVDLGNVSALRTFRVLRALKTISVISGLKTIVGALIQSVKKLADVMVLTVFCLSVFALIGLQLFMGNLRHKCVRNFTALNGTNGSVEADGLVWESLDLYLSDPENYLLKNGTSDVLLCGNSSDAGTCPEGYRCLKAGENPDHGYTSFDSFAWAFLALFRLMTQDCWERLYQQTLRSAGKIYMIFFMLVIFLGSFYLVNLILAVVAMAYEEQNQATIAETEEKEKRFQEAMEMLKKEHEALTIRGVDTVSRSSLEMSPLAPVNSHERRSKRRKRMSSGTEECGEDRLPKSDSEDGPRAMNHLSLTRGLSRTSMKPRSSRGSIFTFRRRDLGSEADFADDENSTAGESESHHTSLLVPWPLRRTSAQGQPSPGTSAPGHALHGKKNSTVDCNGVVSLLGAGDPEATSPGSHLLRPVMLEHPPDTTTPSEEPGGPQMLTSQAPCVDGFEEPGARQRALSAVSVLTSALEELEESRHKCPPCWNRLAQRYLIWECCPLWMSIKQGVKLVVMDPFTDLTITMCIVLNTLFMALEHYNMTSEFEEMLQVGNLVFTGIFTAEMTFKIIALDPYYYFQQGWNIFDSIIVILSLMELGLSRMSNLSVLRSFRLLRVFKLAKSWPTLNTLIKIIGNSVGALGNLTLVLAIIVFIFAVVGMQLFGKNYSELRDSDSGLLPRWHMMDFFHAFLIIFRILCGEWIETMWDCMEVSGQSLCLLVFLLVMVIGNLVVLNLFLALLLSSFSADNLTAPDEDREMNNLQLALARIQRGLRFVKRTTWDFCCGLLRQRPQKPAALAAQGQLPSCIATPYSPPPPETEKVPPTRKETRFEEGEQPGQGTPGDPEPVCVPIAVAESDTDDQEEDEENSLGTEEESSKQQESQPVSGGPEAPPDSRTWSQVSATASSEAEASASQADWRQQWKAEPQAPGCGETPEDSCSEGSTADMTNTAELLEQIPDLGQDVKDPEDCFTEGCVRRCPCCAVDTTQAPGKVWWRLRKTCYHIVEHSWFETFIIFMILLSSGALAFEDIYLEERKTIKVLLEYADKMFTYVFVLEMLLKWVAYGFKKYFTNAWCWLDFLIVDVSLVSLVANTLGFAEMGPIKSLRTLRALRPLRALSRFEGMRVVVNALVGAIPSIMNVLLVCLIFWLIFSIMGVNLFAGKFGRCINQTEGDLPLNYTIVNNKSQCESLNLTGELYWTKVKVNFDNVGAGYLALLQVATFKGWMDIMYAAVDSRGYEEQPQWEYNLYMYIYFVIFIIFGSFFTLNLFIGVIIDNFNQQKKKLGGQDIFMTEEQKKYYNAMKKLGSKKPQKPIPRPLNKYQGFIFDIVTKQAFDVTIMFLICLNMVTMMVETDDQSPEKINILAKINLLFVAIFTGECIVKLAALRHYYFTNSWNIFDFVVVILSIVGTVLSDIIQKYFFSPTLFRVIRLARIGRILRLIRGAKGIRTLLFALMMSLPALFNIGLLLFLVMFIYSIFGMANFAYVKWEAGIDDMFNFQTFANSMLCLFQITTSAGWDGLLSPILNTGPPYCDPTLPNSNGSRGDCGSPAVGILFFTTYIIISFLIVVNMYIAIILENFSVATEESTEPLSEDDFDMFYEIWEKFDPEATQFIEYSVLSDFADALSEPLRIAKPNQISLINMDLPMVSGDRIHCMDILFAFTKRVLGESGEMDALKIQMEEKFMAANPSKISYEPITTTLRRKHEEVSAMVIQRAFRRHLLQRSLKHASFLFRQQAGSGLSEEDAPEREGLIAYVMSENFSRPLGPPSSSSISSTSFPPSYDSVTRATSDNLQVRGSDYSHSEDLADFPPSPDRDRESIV

Row | CLint scaled [2] | CLint scaled [3] | SMILES | IC50 [1]
1 |  |  | N#Cc1cccc([C@H]2CN(CC(F)(F)F)CC[C@@H]2Oc2cc(F)c(S(=O)(=O)Nc3cccc(F)n3)cc2F)c1 (racemic) | 4580 nM
2 | 49 mL/min/kg | 7.5 mL/min/kg | O=S(=O)(Nc1cccc(F)n1)c1cc(F)c(O[C@H]2CCN(CC(F)(F)F)C[C@@H]2c2ccc(F)c(F)c2)cc1F (racemic) | 260 nM
3 |  |  | O=S(=O)(Nc1ccccn1)c1cc(F)c(O[C@H]2CCN(CC(F)(F)F)C[C@@H]2c2ccccc2)cc1F (racemic) | 4320 nM
4 |  |  | O=S(=O)(Nc1ncns1)c1cc(F)c(O[C@H]2CCN(CC(F)(F)F)C[C@@H]2c2ccccc2)cc1F (racemic) | 7830 nM
5 | 71 mL/min/kg | 17 mL/min/kg | O=S(=O)(Nc1cccc(F)n1)c1cc(F)c(O[C@H]2CCN(CC(F)(F)F)C[C@@H]2c2ccccc2F)cc1F (racemic) | 680 nM
6 |  |  | O=S(=O)(Nc1ccc(F)cn1)c1cc(F)c(O[C@H]2CCN(CC(F)(F)F)C[C@@H]2c2ccccc2)cc1F (racemic) | 13200 nM
7 | 70 mL/min/kg | 14 mL/min/kg | O=S(=O)(Nc1cscn1)c1cc(F)c(O[C@H]2CCN(CC(F)(F)F)C[C@@H]2c2ccc(F)c(F)c2)cc1F (racemic) | 750 nM
8 | 53 mL/min/kg | 13 mL/min/kg | O=S(=O)(Nc1cccc(F)n1)c1cc(F)c(O[C@H]2CCN(CC(F)(F)F)C[C@@H]2c2cccc(F)c2)cc1F (racemic) | 460 nM
9 |  |  | O=S(=O)(Nc1cccc(Cl)n1)c1cc(F)c(O[C@H]2CCN(CC(F)(F)F)C[C@@H]2c2ccccc2)cc1F (racemic) | 1100 nM
10 |  |  | O=S(=O)(Nc1cccnn1)c1cc(F)c(O[C@H]2CCN(CC(F)(F)F)C[C@@H]2c2ccccc2)cc1F (racemic) | 25500 nM
11 |  |  | O=S(=O)(Nc1cc(F)ccn1)c1cc(F)c(O[C@H]2CCN(CC(F)(F)F)C[C@@H]2c2ccccc2)cc1F (racemic) | 1290 nM
12 |  |  | O=S(=O)(Nc1cccc(F)n1)c1cc(F)c(OC2CCN(CC(F)(F)F)CC2c2ccc(F)c(F)c2)cc1F (single isomer, unassigned; (+)) | 430 nM
13 |  |  | O=S(=O)(Nc1cccc(C(F)(F)F)n1)c1cc(F)c(O[C@H]2CCN(CC(F)(F)F)C[C@@H]2c2ccccc2)cc1F (racemic) | 6330 nM
14 |  |  | O=S(=O)(Nc1nncs1)c1cc(F)c(O[C@H]2CCN(CC(F)(F)F)C[C@@H]2c2ccccc2)cc1F (racemic) | 25100 nM
15 |  |  | O=S(=O)(Nc1ncc(F)s1)c1cc(F)c(O[C@H]2CCN(CC(F)(F)F)C[C@@H]2c2ccccc2)cc1F (racemic) | 4650 nM
16 |  |  | O=S(=O)(Nc1ncccn1)c1cc(F)c(O[C@H]2CCN(CC(F)(F)F)C[C@@H]2c2ccccc2)cc1F (racemic) | 7140 nM
17 |  |  | O=S(=O)(Nc1ccncn1)c1cc(F)c(O[C@H]2CCN(CC(F)(F)F)C[C@@H]2c2ccccc2)cc1F (racemic) | > 30000 nM
18 | 65 mL/min/kg | 14 mL/min/kg | O=S(=O)(Nc1cccc(F)n1)c1cc(F)c(O[C@H]2CCN(CC(F)(F)F)C[C@@H]2c2ccc(F)c(F)c2)c(F)c1F (racemic) | 31 nM
19 | 65 mL/min/kg | 15 mL/min/kg | O=S(=O)(Nc1cccc(F)n1)c1cc(F)c(O[C@H]2CCN(CC(F)(F)F)C[C@@H]2c2ccc(F)c(F)c2)c(F)c1 (racemic) | 65 nM
20 |  |  | CS(=O)(=O)c1cccc([C@H]2CN(CC(F)(F)F)CC[C@@H]2Oc2cc(F)c(S(=O)(=O)Nc3cccc(F)n3)cc2F)c1 (racemic) | > 30000 nM
21 |  |  | O=S(=O)(Nc1ncccc1F)c1cc(F)c(O[C@H]2CCN(CC(F)(F)F)C[C@@H]2c2ccccc2)cc1F (racemic) | 5040 nM
22 | 62 mL/min/kg | 11 mL/min/kg | O=S(=O)(Nc1cccc(F)n1)c1cc(F)c(O[C@H]2CCN(CC(F)(F)F)C[C@@H]2c2ccc(F)cc2)cc1F (racemic) | 610 nM
23 |  |  | O=S(=O)(Nc1cccc(F)n1)c1cc(F)c(O[C@H]2CCN(CC(F)(F)F)C[C@@H]2c2ccc(F)c(F)c2)c(F)c1 (stereo in doubt; (+)-6) | 170 nM
24 | 49 mL/min/kg | 13 mL/min/kg | O=S(=O)(Nc1cccc(F)n1)c1cc(F)c(O[C@H]2CCN(CC(F)(F)F)C[C@@H]2c2ccc(F)cc2F)cc1F (racemic) | 470 nM

— ChEMBL document CHEMBL4811281, “Identification of aryl sulfonamides as novel and potent inhibitors of NaV1.5” (Bioorg Med Chem Lett, 2021)
